Experimental findings from patent US11208412B2 (DAEGU-GYEONGBUK MEDICAL INNOVATION FOUNDATION, priority 2017, dated 2021) are described below.

pIC50: −log10 of the molar value.

In this assay the target is T1, recombinant LRRK2 kinase (Homo sapiens, UniProt Q5S007).
T1 construct: purchased Signal Chem, Richmond, BC, Canada
T1 sequence (Q5S007 whole entry): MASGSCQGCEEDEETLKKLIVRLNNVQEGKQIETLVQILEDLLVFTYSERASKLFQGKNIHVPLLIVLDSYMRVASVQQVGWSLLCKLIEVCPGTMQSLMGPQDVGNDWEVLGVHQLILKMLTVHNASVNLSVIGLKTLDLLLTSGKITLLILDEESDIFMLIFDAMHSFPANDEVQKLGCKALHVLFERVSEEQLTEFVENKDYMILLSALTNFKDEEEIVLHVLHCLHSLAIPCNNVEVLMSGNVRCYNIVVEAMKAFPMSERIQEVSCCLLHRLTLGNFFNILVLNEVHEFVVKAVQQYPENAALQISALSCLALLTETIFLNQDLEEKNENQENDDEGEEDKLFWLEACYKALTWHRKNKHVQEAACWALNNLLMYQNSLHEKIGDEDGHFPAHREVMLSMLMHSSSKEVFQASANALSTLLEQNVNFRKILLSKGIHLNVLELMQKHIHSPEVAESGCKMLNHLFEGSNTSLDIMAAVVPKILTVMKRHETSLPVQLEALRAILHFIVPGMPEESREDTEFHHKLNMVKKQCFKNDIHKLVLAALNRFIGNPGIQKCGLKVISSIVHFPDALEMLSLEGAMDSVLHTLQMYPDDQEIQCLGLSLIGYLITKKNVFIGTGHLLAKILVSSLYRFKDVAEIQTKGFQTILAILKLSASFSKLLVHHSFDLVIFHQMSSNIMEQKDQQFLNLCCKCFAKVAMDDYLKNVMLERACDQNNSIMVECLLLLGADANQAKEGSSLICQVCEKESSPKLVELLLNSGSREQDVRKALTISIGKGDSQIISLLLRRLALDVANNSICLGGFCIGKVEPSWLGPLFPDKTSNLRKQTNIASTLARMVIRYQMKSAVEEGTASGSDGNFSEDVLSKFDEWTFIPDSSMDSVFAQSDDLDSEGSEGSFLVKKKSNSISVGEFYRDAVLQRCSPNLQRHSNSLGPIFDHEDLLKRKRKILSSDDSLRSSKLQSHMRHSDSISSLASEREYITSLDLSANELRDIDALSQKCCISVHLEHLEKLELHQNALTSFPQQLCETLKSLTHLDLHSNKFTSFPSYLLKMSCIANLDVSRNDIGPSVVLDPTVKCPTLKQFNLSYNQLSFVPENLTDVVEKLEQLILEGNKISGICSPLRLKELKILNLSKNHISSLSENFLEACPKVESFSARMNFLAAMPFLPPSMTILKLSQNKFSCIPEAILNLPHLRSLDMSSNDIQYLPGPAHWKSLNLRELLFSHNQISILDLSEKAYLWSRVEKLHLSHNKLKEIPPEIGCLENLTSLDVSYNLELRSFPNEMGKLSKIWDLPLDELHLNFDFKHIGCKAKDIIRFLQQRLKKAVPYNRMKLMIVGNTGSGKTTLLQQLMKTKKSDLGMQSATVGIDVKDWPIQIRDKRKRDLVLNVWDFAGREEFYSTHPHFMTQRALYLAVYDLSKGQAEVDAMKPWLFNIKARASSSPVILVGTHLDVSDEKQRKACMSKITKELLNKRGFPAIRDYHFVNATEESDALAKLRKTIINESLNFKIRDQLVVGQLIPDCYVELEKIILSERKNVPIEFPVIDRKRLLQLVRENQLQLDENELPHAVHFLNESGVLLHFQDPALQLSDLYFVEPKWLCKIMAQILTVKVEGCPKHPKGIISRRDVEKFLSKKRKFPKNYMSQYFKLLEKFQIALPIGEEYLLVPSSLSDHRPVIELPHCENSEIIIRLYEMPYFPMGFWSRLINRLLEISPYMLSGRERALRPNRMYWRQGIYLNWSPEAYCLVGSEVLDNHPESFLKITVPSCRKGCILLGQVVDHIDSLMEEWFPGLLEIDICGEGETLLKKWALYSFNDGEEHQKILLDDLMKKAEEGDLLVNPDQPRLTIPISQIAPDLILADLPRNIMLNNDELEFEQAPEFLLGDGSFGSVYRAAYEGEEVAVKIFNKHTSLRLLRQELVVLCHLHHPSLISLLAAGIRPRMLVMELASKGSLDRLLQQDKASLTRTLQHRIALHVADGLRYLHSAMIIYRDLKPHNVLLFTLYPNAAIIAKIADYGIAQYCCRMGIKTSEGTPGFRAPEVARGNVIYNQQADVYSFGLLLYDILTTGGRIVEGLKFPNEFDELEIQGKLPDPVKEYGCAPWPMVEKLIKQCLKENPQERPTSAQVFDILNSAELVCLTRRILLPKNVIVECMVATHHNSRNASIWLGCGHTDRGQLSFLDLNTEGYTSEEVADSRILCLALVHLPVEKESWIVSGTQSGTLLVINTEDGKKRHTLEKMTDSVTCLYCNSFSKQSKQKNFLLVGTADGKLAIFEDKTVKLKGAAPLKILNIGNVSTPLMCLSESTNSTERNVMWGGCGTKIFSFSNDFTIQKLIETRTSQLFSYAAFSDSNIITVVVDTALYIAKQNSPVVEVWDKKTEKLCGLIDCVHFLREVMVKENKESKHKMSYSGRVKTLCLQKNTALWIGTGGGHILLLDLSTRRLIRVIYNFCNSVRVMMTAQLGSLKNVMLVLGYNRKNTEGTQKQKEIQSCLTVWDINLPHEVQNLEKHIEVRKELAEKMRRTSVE
The experiment in a line: LRRK2 kinase inhibition (Kinase-Glo luminescence). The assay is classed as biochemical. The note with it: IC50 grade; 25 μmol/L ATP, LRRKtide, 30° C. 2 hours; read-out: Enzyme activity LRRK2. Here is the method:
Upon completion of the reaction, an equal amount of Kinase-Glo (Promega, Madison, Wis.) solution was added thereto, followed by reaction for 40 minutes. A detection solution was added thereto, followed by further reaction at room temperature for 30 minutes. Then, IC50 of kinase was calculated by measuring the amount of luciferase using a microplate ELISA reader (Bio-Tek).
Take `Cc1nn(C(C)(C)C#N)cc1Nc1nc(NC2(C)CC2)c2c(C#N)c[nH]c2n1` [Example 49, 2-((1-(2-cyanopropane-2-yl)-3-methyl-1H-pyrazole-4-yl)amino)-4-((1-methylcyclopropyl)amino)-7H-pyrrolo[2,3-d]pyrimidine-5-carbonitrile]: the pIC50 was over 8.00.
As for `CCNc1nc(Nc2ccc(C(=O)N3CCO[C@H](C)C3)cc2OC)nc2[nH]cc(C(F)(F)F)c12` [Example 108, (R)-(4-((4-(ethylamino)-5-(trifluoromethyl)-7H-pyrrolo[2,3-d]pyrimidine-2-yl)amino)-3-methoxyphenyl)(2-methylmorpholino)methanone], the figure is 7.00 to 8.00; as for `CCNc1nc(Nc2cc3c(cc2Cl)C(=O)N(C)C3)nc2[nH]cc(C(F)(F)F)c12` [Example 135, 6-chloro-5-((4-(ethylamino)-5-(trifluoromethyl)-7H-pyrrolo[2,3-d]pyrimidine-2-yl)amino)-2-methyl isoindolin-1-one], under 7.00.
As to `CCNc1nc(Nc2cnn(CCO)c2)nc2[nH]cc(C#N)c12` [Example 70, 4-(ethylamino)-2-((1-(2-hydroxyethyl)-1H-pyrazole-4-yl)amino)-7H-pyrrolo[2,3-d]pyrimidine-5-carbonitrile], the pIC50 is over 8.00.
With `COc1cc(C(=O)N2CCOCC2)ccc1Nc1nc(OC2CCOC2)c2c(C#N)c[nH]c2n1` (stereo not drawn) [Example 86, 2-((2-methoxy-4-(morpholine-4-carbonyl)phenyl)amino)-4-((tetrahydrofuran-3-yl)oxy)-7H-pyrrolo[2,3-d]pyrimidine-5-carbonitrile], the pIC50 was over 8.00.
Regarding `CC1(Oc2nc(Nc3cnn([C@H]4CCN(C5COC5)C[C@@H]4F)c3Cl)nc3[nH]cc(C#N)c23)CC1` [Example 96, 2-((5-chloro-1-((3S,4S)-3-fluoro-1-(oxetane-3-yl)piperidine-4-yl)-1H-pyrazole-4-yl)amino)(1-methylcyclopropoxy)-7H-pyrrolo[2,3-]pyrimidine-5-carbonitrile], the pIC50 was over 8.00.
As for `CCNc1nc(Nc2ncc(C(=O)N3CCOCC3)cc2OC)nc2[nH]cc(C#N)c12` [Example 48, 4-(ethylamino)-2-((3-methoxy-5-(morpholine-4-carbonyl)pyridine-2-yl)amino)-7H-pyrrolo[2,3-d]pyrimidine-5-carbonitrile], the pIC50 is under 7.00.
`COc1cc(C(=O)N2CCOCC2)ccc1Nc1nc(O[C@@H]2CCOC2)c2c(C#N)c[nH]c2n1` [Example 89, (R)-2-((2-methoxy-4-(morpholine-4-carbonyl)phenyl)amino)-4-((tetrahydrofuran-3-yl)oxy)-7H-pyrrolo[2,3-d]pyrimidine-5-carbonitrile]: the pIC50 was over 8.00.
For the compound `CCNc1nc(Nc2ccc(C(=O)N3CCN(C4COC4)CC3)cc2OC)nc2[nH]cc(C#N)c12` [Example 58, 4-(ethylamino)-2-((2-methoxy-4-(4-(oxetane-3-yl)piperazine-1-carbonyl)phenyl)amino)-7H-pyrrolo[2,3-d]pyrimidine-5-carbonitrile], the pIC50 was over 8.00.
